Results: PubChem BioAssay AID1259411 (Chemical Carcinogenesis Research Information System (CCRIS), 2018)
The source made the active and inactive calls. The rule behind the calls is not given here.

System: rodent carcinogenicity bioassays, tumor incidence
Assay: CCRIS carcinogenicity studies
Outline: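 NCI-built, expert-reviewed records of carcinogenicity and related test outcomes (mutagenicity, tumor promotion/inhibition) compiled from published and report sources, historical span 1985-2011, not updated.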

In the case of `S=C([S-])NCCNC(=S)[S-].[Zn+2]`, the carcinogen call (Species: MOUSE, Strain/Sex: CD/FEMALE, Route: ORAL, Dose: 0, 100, 300 PPM IN DIET FOR 89 WK (STUDY DURATION: 94 WK), Dose: 0, 100, 300 PPM IN DIET FOR 89 WK (STUDY DURATION: 94 WK)) is reported as “inactive; negative”, the carcinogen call (Species: MOUSE, Strain/Sex: CD/FEMALE, Route: ORAL, Dose: 0, 1000 PPM IN DIET FOR 88 WK (STUDY DURATION: 88 WK)) is reported as “inactive; negative” and the carcinogen call (Species: MOUSE, Strain/Sex: CD/MALE, Route: ORAL, Dose: 0, 100, 300, 1000 PPM IN DIET FOR 95 WK (STUDY DURATION: 96 WK), Dose: 0, 100, 300, 1000 PPM IN DIET FOR 95 WK (STUDY DURATION: 96 WK)) is reported as “inactive; negative”. The carcinogen call (Species: RAT, Strain/Sex: CD/FEMALE, Route: ORAL, Dose: 0, 5, 20, 80, 320 PPM IN DIET FOR 112 WK (STUDY DURATION: 112 WK), Dose: 0, 5, 20, 80, 320 PPM IN DIET FOR 112 WK (STUDY DURATION: 112 WK)) was “inactive; negative” and the carcinogen call (Species: RAT, Strain/Sex: CD/MALE, Route: ORAL, Dose: 0, 5, 20, 80, 320 PPM IN DIET FOR 119 WK (STUDY DURATION: 119 WK), Dose: 0, 5, 20, 80, 320 PPM IN DIET FOR 119 WK (STUDY DURATION: 119 WK)) was “inactive; negative”.

With `Cc1ccc2c3c(cccc13)-c1ccccc1-2` the carcinogen call (Species: MOUSE, Strain/Sex: CD-1/FEMALE, Route: INTRAPERITONEAL, Dose: 0, 3.46, 17.3 UMOL (TOTAL DOSE) IN DMSO ADMINISTERED ON DAYS 1,8, AND 15 OF LIFE (STUDY DURATION: 52 WK), Dose: 0, 3.46, 17.3 UMOL (TOTAL DOSE) IN DMSO ADMINISTERED ON DAYS 1,8, AND 15 OF LIFE (STUDY DURATION: 52 WK)) was “inactive; negative” and the carcinogen call (Species: MOUSE, Strain/Sex: CD-1/MALE, Route: INTRAPERITONEAL, Dose: 0, 3.46, 17.3 UMOL (TOTAL DOSE) IN DMSO ADMINISTERED ON DAYS 1,8, AND 15 OF LIFE (STUDY DURATION: 52 WK), Dose: 0, 3.46, 17.3 UMOL (TOTAL DOSE) IN DMSO ADMINISTERED ON DAYS 1,8, AND 15 OF LIFE (STUDY DURATION: 52 WK), Tumor Site: Type of Lesion: LIVER: TUMORS) was “active; positive”.

With `CCCCCCCN(C)N=O` the carcinogen call (Species: HAMSTER, Strain/Sex: SYRIAN/FEMALE, Route: GAVAGE, Dose: 0, 6.8 MG/KG 1/WK FOR 40 WK (TOTAL DOSE: 0; 2.1 MMOL) (STUDY DURATION: LIFETIME), Dose: 0, 6.8 MG/KG 1/WK FOR 40 WK (TOTAL DOSE: 0; 2.1 MMOL) (STUDY DURATION: LIFETIME), Tumor Site: Type of Lesion: LIVER: CHOLANGIOMA, LUNG: ALVEOLAR/BRONCHIAL CARCINOMA, ALVEOLAR/BRONCHIAL ADENOMA, ADENOSQUAMOUS CARCINOMA, NASAL MUCOS, Tumor Site: Type of Lesion: LIVER: CHOLANGIOMA, LUNG: ALVEOLAR/BRONCHIAL CARCINOMA, ALVEOLAR/BRONCHIAL ADENOMA, ADENOSQUAMOUS CARCINOMA, NASAL MUCOS) was “active; positive” and the carcinogen call (Species: HAMSTER, Strain/Sex: SYRIAN/MALE, Route: GAVAGE, Dose: 0, 6.8 MG/KG 1/WK FOR 40 WK (TOTAL DOSE: 0; 2.1 MMOL) (STUDY DURATION: LIFETIME), Dose: 0, 6.8 MG/KG 1/WK FOR 40 WK (TOTAL DOSE: 0; 2.1 MMOL) (STUDY DURATION: LIFETIME), Tumor Site: Type of Lesion: LIVER: CHOLANGIOMA, HEMANGIOSARCOMA, LUNG: ALVEOLAR/BRONCHIAL CARCINOMA, ALVEOLAR/BRONCHIAL ADENOMA, ADENOSQUAMOUS CARCI) was “active; positive”.

For `Nc1ccc(Nc2ccccc2)cc1`, the carcinogen call (Species: MOUSE, Strain/Sex: B6C3F1/FEMALE, Route: ORAL, Dose: 0, 3672, 8170 PPM IN DIET, TWA, Dose: 0, 3672, 8170 PPM IN DIET, TWA) was “inactive; negative”, the carcinogen call (Species: MOUSE, Strain/Sex: B6C3F1/MALE, Route: ORAL, Dose: 0, 2057, 4114 PPM IN DIET, TWA, Dose: 0, 2057, 4114 PPM IN DIET, TWA) was “inactive; negative” and the carcinogen call (Species: RAT, Strain/Sex: F344/FEMALE, Route: ORAL, Dose: 0, 600, 1200 PPM IN DIET, Dose: 0, 600, 1200 PPM IN DIET) was “inactive; negative”. For the same compound, the carcinogen call (Species: RAT, Strain/Sex: F344/MALE, Route: ORAL, Dose: 0, 600, 1200 PPM IN DIET, Dose: 0, 600, 1200 PPM IN DIET) was “inactive; negative”.

`ClCc1cccnc1` was tested, and the carcinogen call (Species: MOUSE, Strain/Sex: B6C3F1/FEMALE, Route: GAVAGE, Dose: 0, 100, 200 MG/KG, Dose: 0, 100, 200 MG/KG, Tumor Site: Type of Lesion: STOMACH: SQUAMOUS CELL PAPILLOMA, CARCINOMA) was “active; positive”, the carcinogen call (Species: MOUSE, Strain/Sex: B6C3F1/MALE, Route: GAVAGE, Dose: 0, 100, 200 MG/KG, Dose: 0, 100, 200 MG/KG, Tumor Site: Type of Lesion: STOMACH: SQUAMOUS CELL PAPILLOMA, CARCINOMA) was “active; positive” and the carcinogen call (Species: RAT, Strain/Sex: F344/FEMALE, Route: GAVAGE, Dose: 0, 75, 150 MG/KG FOR 83 WK (STUDY DURATION: 104 WK), Dose: 0, 75, 150 MG/KG FOR 83 WK (STUDY DURATION: 104 WK), Tumor Site: Type of Lesion: FORESTOMACH: SQUAMOUS CELL PAPILLOMA) was “equivocal”. For the same compound, the carcinogen call (Species: RAT, Strain/Sex: F344/MALE, Route: GAVAGE, Dose: 0, 75, 150 MG/KG, Dose: 0, 75, 150 MG/KG, Tumor Site: Type of Lesion: STOMACH: SQUAMOUS CELL PAPILLOMA OR CARCINOMA) was “active; positive”.

With `OC1c2cccc3c4ccccc4c4c5ccccc5cc(c4c23)C1O` (stereo not given) the carcinogen call (Species: MOUSE, Strain/Sex: SWISS/FEMALE, Route: DERMAL, Dose: 0, 1, 4 NMOL IN 100 µL ACETONE 2/WK FOR 40 WK (STUDY DURATION: 48 WK), Dose: 0, 1, 4 NMOL IN 100 µL ACETONE 2/WK FOR 40 WK (STUDY DURATION: 48 WK)) was “inactive; negative”.

In the case of `C=CF`, the carcinogen call (Species: MOUSE, Strain/Sex: SWISS/FEMALE, Route: INHALATION, Dose: 0, 25, 250, 2500 PPM 6 HR/D 5 D/WK FOR 18 MO (STUDY DURATION: 18 MO), Dose: 0, 25, 250, 2500 PPM 6 HR/D 5 D/WK FOR 18 MO (STUDY DURATION: 18 MO), Tumor Site: Type of Lesion: LUNG: ADENOMA, LIVER: HEMANGIOSARCOMA, MAMMARY GLAND: TUMOR, Tumor Site: Type of Lesion: LUNG: ADENOMA, LIVER: HEMANGIOSARCOMA, MAMMARY GLAND: TUMOR) is reported as “active; positive”, the carcinogen call (Species: MOUSE, Strain/Sex: SWISS/MALE, Route: INHALATION, Dose: 0, 25, 250, 2500 PPM 6 HR/D 5 D/WK FOR 18 MO (STUDY DURATION: 18 MO), Dose: 0, 25, 250, 2500 PPM 6 HR/D 5 D/WK FOR 18 MO (STUDY DURATION: 18 MO), Tumor Site: Type of Lesion: LUNG: ADENOMA, LIVER: HEMANGIOSARCOMA) is reported as “active; positive” and the carcinogen call (Species: RAT, Strain/Sex: SPRAGUE-DAWLEY/FEMALE, Route: INHALATION, Dose: 0, 25, 250, 2500 PPM 6 HR/D 5 D/WK FOR 2 YR (STUDY DURATION: 2 YR), Dose: 0, 25, 250, 2500 PPM 6 HR/D 5 D/WK FOR 2 YR (STUDY DURATION: 2 YR), Tumor Site: Type of Lesion: LIVER: HEMANGIOSARCOMA, ADENOMA OR CARCINOMA, ZYMBAL'S GLAND: TUMOR) is reported as “active; positive”. For the same compound, the carcinogen call (Species: RAT, Strain/Sex: SPRAGUE-DAWLEY/MALE, Route: INHALATION, Dose: 0, 25, 250, 2500 PPM 6 HR/D 5 D/WK FOR 2 YR (STUDY DURATION: 2 YR), Dose: 0, 25, 250, 2500 PPM 6 HR/D 5 D/WK FOR 2 YR (STUDY DURATION: 2 YR), Tumor Site: Type of Lesion: LIVER: HEMANGIOSARCOMA, ZYMBAL'S GLAND: TUMOR) was “active; positive”.

In the case of `Cc1ccc(Cl)cc1N`, the carcinogen call (Species: MOUSE, Strain/Sex: B6C3F1/FEMALE, Route: ORAL, Dose: 0, 2000, 4000 PPM IN DIET, Dose: 0, 2000, 4000 PPM IN DIET, Tumor Site: Type of Lesion: BLOOD VESSELS: HEMANGIOSARCOMA, LIVER: HEPATOCELLULAR ADENOMA OR CARCINOMA) is reported as “active; positive”, the carcinogen call (Species: MOUSE, Strain/Sex: B6C3F1/MALE, Route: ORAL, Dose: 0, 2000, 4000 PPM IN DIET, Dose: 0, 2000, 4000 PPM IN DIET, Tumor Site: Type of Lesion: BLOOD VESSELS: HEMANGIOSARCOMA, LIVER: HEPATOCELLULAR ADENOMA OR CARCINOMA) is reported as “active; positive” and the carcinogen call (Species: RAT, Strain/Sex: F344/FEMALE, Route: ORAL, Dose: 0, 2500, 5000 PPM IN DIET, Dose: 0, 2500, 5000 PPM IN DIET) is reported as “inactive; negative”. For the same compound, the carcinogen call (Species: RAT, Strain/Sex: F344/MALE, Route: ORAL, Dose: 0, 2500, 5000 PPM IN DIET, Dose: 0, 2500, 5000 PPM IN DIET) was “inactive; negative”.

With `CCN(CC)c1ccc(C(=C2C=CC(=[N+](CC)CC)C=C2)c2ccc(S(=O)(=O)O)cc2S(=O)(=O)[O-])cc1` the carcinogen call (Species: RAT, Route: SUBCUTANEOUS, INTRAMUSCULAR, Tumor Site: Type of Lesion: INJECTION SITE) was “active; positive”.

With `CN1[C@@H]2CC[C@H]1CC(OC(=O)C(CO)c1ccccc1)C2` (stereo not given in full) the carcinogen call (Species: RAT, Strain/Sex: SPRAGUE-DAWLEY/FEMALE, Route: INTRAPERITONEAL, Dose: 0, 25 UG/KG BW 2/D FOR 5 D TO VIRGIN FEMALE RATS (STUDY DURATION: 28 MO)) was “inactive; negative”.

`Nc1cccc2ccccc12` was tested, and the carcinogen call (Species: DOG, Strain/Sex: BEAGLE/FEMALE, Route: ORAL, Dose: 22.0 MG/KG 5/WK) was “inactive; negative” and the carcinogen call (Species: DOG, Strain/Sex: BEAGLE/MALE, Route: ORAL, Dose: 18.4 MG/KG 5/WK) was “inactive; negative”.
